One data set concerns mice's lungs. Briefly: In vivo transfection of luciferase plasmid DNA complexed with cationic lipid (luciferase in lungs, RLU). On the set-up: species or system mice of the Swiss lineage. The settings on record: mouse, 50 μg plasmid DNA as lipid/DNA complex; alone or with DOPE or cholesterol; FIG. 6. On the procedure:
Cationic lipid/DNA complexes are prepared according to a charge (+/−) ratio of 4 and are administered to six week old mice of the Swiss lineage through one single injection into the caudal vein. Each animal receives a volume of 200 μl of a solution of the tested lipid/DNA complex, corresponding to 50 μg plasmid DNA coding the luciferase protein.
The animals are sacrificed 24 hours after the injection and each organ of interest id deep frozen in liquid nitrogen and then stored at a temperature of −70° C.
The deep frozen tissues are ground with steel balls in a 2 ml round bottom tube of the Epperdorf type using a device of the Mill MM300 mixer type (marketed by QIAGEN Company; reference: 0030120-094).
The extraction of the proteins from each tissue is performed by incubating the ground tissues in a PLB lysis buffer (Promega) followed by a centrifugation at 10,000 g, 10 min at 4° C. […]
Parallelly, the total protein concentration is measured using the <<Coomassie Plus Reagent Assay Kit>> (marketed by Pierce Company). […]
A comparative study of different cationic lipids is conducted by varying the linking part (Group R^3) between the hydrophobic domain and the hydrophilic domain, in mouse. Each lipid is evaluated separately or in admixture with the DOPE compound or cholesterol, used as co-lipids, as described in the <<Material and Methods>> section.

Data set [1] has as its system K 562, Jurkat, Daudi, HeLa, CFPAC cells. In words: Determination of the cell toxicity of lipid/DNA complexes (CYTOLITE chemiluminescent test, toxicity index). The data set is classed as cell-based. The note with it: 48 hours after transfection; non transfected cells as controls. On the procedure:
The relative cytotoxicity of the different cationic phosphonolipid/DNA complexes is determined as a representation of the number of living cells after the transfection experiment, measured by using a chemiluminescent test, the CYTOLITE® test (marketed by PACKARD Company, France) following the manufacturer's recommendations.
The cell transfection is conducted following the procedure described in the above Section A.3.
On the day of the transfection, cells are seeded in 24-well plate wells at a level of: • 500,000 cells per well for the non adherent cell lineages (K 562. Jurkat, Daudi); and • 150,000 cells per well for the adherent cell lineages (HeLa, CFPAC cells in primary culture).
The cells are treated for the transfection as described hereinabove and incubated for another period of 48 hours.
After incubation, the cytotoxicity test is conducted following the manufacturer's recommendations.
The amount of relative light units (RLU for <<Relative light units>>) being formed is proportional to the number of living cells.
The non transfected cells are used as controls.
The final results are expressed following a toxicity index. The toxicity index represents the ratio between the number of living cells in the control cultures (without cationic lipids/DNA complex) and the number of living cells in the culture wells containing the transfected cells.

Results on two compounds are retold here after patent US7667070B2, “Lipophilic compounds and uses thereof” (Centre National de la Recherche Scientifique (CNRS), priority 2002, dated 2010).

Turning to `CCCCCCCC/C=C\CCCCCCCCOP(=O)(NCCC[P+](C)(C)C)OCCCCCCCC/C=C\CCCCCCCC.[I-]` [KLN20, dioleyl 3-(trimethylphosphonio)propylamidophosphate iodide], in the data set on mice's lungs, the “in vivo transfection efficiency (luciferase amount found in lungs)” value is “most efficient”. As to `CCCCCCCCCCCCCCOP(=O)(OCCCCCCCCCCCCCC)N(C)CCC[N+](C)(C)C.[I-]` [KLN 5, 3-[[bis(tetradecyloxy)phosphoryl](methyl)amino]-N.N.N-trimethyl-propanaminium iodide], the “cytotoxicity (toxicity index: living cells in control cultures / living cells in transfected cultures)” value in data set [1] is “does not show any toxicity”.
